Results on four compounds are retold here after PMC6213216, “AbeTx1 Is a Novel Sea Anemone Toxin with a Dual Mechanism of Action on Shaker-Type K^+ Channels Activation” (Marine Drugs, 2018).

Where two headings read alike, the source gives them in different places. Positions of bridges follow the written chain, without caps; N, C: chain ends. Residues, ends and D or L forms follow the SMILES beside them.

For one test, the target named is T1, rKV1.1 (Rattus norvegicus, UniProt P10499).
T1 construct: expressed in transfected cells; host or cells: Xenopus laevis oocytes injected with cRNA
T1 sequence (P10499 whole entry): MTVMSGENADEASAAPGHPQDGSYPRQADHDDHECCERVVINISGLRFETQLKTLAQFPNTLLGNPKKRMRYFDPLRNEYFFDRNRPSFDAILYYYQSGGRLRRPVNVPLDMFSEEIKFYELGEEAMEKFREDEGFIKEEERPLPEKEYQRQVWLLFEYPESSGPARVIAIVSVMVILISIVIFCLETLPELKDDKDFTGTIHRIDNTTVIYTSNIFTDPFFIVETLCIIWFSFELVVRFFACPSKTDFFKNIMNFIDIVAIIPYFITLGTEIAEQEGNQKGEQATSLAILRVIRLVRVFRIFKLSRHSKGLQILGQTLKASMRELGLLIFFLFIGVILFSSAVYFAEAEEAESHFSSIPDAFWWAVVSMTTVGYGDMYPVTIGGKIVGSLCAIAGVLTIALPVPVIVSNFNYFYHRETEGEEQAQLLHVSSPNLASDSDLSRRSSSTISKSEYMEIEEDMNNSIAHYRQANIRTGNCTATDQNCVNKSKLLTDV
Briefly: Two-electrode voltage-clamp on Xenopus laevis oocytes expressing rKV1.1. Format: cell-based. As for the experimental part:
(§1) The pharmacological effect of AbeTx1 was analyzed by heterologous expression of 12 voltage-gated potassium channels isoforms (rKV1.1, Genbank NM173095; rKV1.2, Genbank NM012970; hKV1.3, Genbank L23499; rKV1.4,Genbank NM012971; rKV1.5, Genbank NM012972; rKV1.6, Genbank NM575671; Shaker IR from Drosophila melanogaster, Genbank CG12348; rKV2.1, Genbank NM013186; hKV3.1, Genbank NM004976; rKV4.2, Genbank NM031730; rKV4.3, Genbank NM031739 and hERG, Genbank NM000238), and three voltage-gated sodium channel subtypes (rNaV1.2, Genbank NM012647; rNaV1.4, Genbank M26643 and BgNaV1.1, from Blattella germanica) (r, rat; h, human) in oocytes from Xenopus laevis. The linearized plasmids were transcribed using a T7 or SP6 mMESSAGE-mMACHINE transcription kit (Life Technologies, Austin, TX, USA). Oocytes were injected with 20–50 nL of cRNA at a concentration of 1 ng·nL^−1 using a microinjector (Drummond Scientific, Broomall, PA, USA). The oocytes were stored for 1–3 days at 16 °C until sufficient expression of voltage-gated ion channels was achieved. Oocytes were maintained in an ND96 solution (in mM: 96 NaCl, 2 KCl, 1.8 CaCl2, 2 MgCl2 and 5 HEPES; pH 7.4), supplemented with 50 µg·mL^−1 gentamicin sulfate.
(§2) Two-electrode voltage-clamp recordings were performed at room temperature (18–22 °C) using a Geneclamp 500 amplifier (Molecular Devices, Sunnyvale, CA, USA) controlled by a pClamp data acquisition system (Axon Instruments, Union City, CA, USA). ND96 was used as bath solution. Whole-cell currents from oocytes were recorded 1–3 days after injection. Voltage and current electrodes were filled with KCl (3 M). The resistance of both electrodes was kept between 0.8–1.0 MΩ. The elicited currents were filtered at 0.5 or 2 kHz using a four-pole low-pass Bessel filter. Leak subtraction was performed using a -P/4 protocol. KV1.1-KV1.6 and Shaker IR currents were evoked by 500 ms depolarization to 0 mV, followed by a 500 ms pulse to −50 mV, from a holding potential of −90 mV. KV2.1, KV3.1, KV4.2, and KV4.3 currents were elicited by 500 ms pulses to + 20 mV from a holding potential of −90 mV. Current traces of hERG channels were elicited by applying a +40 mV pulse for 2.5 s, followed by a step to −120 mV for 2.5 s. Sodium current traces were evoked by 100 ms depolarization steps from a holding potential of −90 mV to 0 mV. Concentration-response curves were constructed by adding different AbeTx1 or analogs concentrations directly to the bath solution. The percentage of the KV blockade was plotted against the logarithm of the applied concentrations and fitted with the Hill Equation (1):y = 100/[1 + (IC50/[toxin]) × h](1) where y is the amplitude of the toxin-induced effect, IC50 is the toxin concentration at half-maximal efficacy, [toxin] is the toxin concentration, and h is the Hill coefficient. To investigate the effects on the voltage dependence of activation, current traces were evoked by 10 mV depolarization steps from a holding potential of −90 mV. Data were normalized to the maximal K^+ current amplitude, plotted against prepulse potential, and fitted using the Boltzmann Equation (2):IK/Imax = [1 + (exp(Vg − V)/k] − 1(2) where Imax represents maximal potassium current (IK), Vg is the voltage corresponding to half-maximal current, and k is the slope factor. Each experimental data represents mean ± standard error of at least three oocytes (n ≥ 3) from different frogs. Effect of the toxin on current-voltage experiments was statistically examined by comparing the control condition and the presence of toxin using the Student’s paired t-test. P-values < 0.05 are considered to be statistically significant. Data were analyzed using Clampfit 10.4 (Molecular Devices, Sunnyvale, CA, USA) and Origin v8.1 software (Origin Lab, Northampton, MA, USA), under the institutional license of the University of São Paulo.
(In two-electrode clamp one electrode senses voltage and the other passes current.)

The next test deals with T2, rKV1.6 (Rattus norvegicus, UniProt P17659).
T2 construct: expressed in transfected cells; host or cells: Xenopus laevis oocytes injected with cRNA
T2 sequence (P17659 whole entry): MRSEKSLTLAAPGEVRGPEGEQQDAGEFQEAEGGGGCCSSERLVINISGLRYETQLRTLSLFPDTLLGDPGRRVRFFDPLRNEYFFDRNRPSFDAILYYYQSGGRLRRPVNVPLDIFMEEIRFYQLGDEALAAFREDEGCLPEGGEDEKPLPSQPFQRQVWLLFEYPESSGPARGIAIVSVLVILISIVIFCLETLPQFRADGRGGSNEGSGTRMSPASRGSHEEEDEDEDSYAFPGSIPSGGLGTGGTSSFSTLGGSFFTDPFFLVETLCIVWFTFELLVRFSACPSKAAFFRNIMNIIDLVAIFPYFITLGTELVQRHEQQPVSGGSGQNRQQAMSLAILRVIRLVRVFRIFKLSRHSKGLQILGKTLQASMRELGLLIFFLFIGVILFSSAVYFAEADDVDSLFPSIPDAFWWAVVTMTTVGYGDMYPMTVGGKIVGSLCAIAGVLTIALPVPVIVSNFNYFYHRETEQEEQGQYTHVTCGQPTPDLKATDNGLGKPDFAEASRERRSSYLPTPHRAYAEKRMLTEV
Briefly: Two-electrode voltage-clamp on Xenopus laevis oocytes expressing rKV1.6. Format: cell-based. As to the method:
as §1, §2

The mark [1] stands for this setting: concentration-response curve, percentage blocked current fitted with Hill equation, TEVC oocytes, 0 mV from −90 mV, mean ± SE, n ≥ 3, SEM, read-out: KV1.1 IC50.
[2] abbreviates: concentration-response curve, percentage blocked current fitted with Hill equation, TEVC oocytes, 0 mV from −90 mV, mean ± SE, n ≥ 3, SEM, read-out: KV1.6 IC50.

As to `C[C@@H]1NC(=O)[C@@H](NC(=O)[C@@H](N)CCCNC(=N)N)CSSC[C@@H](C(=O)NCC(=O)O)NC(=O)[C@H](CC(N)=O)NC(=O)[C@@H]2CCCN2C(=O)[C@H](CCCCN)NC(=O)[C@@H]2CCCN2C(=O)[C@H](CCCNC(=N)N)NC(=O)[C@@H]2CSSC[C@H](NC(=O)[C@H]([C@@H](C)O)NC1=O)C(=O)N[C@@H](CO)C(=O)N[C@@H](CCCCN)C(=O)NCC(=O)N[C@@H](CCCNC(=N)N)C(=O)N2` [Lys3Ala] (H-RCATCSKGRCRPKPNCG-OH; disulfide 2-16, 5-10), the IC50 (commonly the concentration at which inhibition is half-maximal) on rKV1.1 (setting [1]) was determined as 27.5 µM; at rKV1.6 (setting [2]), 18.9 µM.

In the case of `C[C@@H]1NC(=O)[C@H](CO)NC(=O)[C@@H]2CSSC[C@H](NC(=O)[C@H](CCCNC(=N)N)NC(=O)CNC1=O)C(=O)N[C@@H](CCCNC(=N)N)C(=O)N1CCC[C@H]1C(=O)N[C@@H](CCCCN)C(=O)N1CCC[C@H]1C(=O)N[C@@H](CC(N)=O)C(=O)N[C@H](C(=O)NCC(=O)O)CSSC[C@H](NC(=O)[C@@H](N)CCCNC(=N)N)C(=O)N[C@@H](CCCCN)C(=O)N[C@@H]([C@@H](C)O)C(=O)N2` [Lys7Ala] (H-RCKTCSAGRCRPKPNCG-OH; disulfide 2-16, 5-10), the IC50 at rKV1.1 (setting [1]) worked out at 17.8 µM; on rKV1.6 (setting [2]), 0.852 ± 0.09 µM.

`C[C@@H]1NC(=O)[C@@H]2CCCN2C(=O)[C@H](CCCNC(=N)N)NC(=O)[C@@H]2CSSC[C@H](NC(=O)[C@H]([C@@H](C)O)NC(=O)[C@H](CCCCN)NC(=O)[C@@H](NC(=O)[C@@H](N)CCCNC(=N)N)CSSC[C@@H](C(=O)NCC(=O)O)NC(=O)[C@H](CC(N)=O)NC(=O)[C@@H]3CCCN3C1=O)C(=O)N[C@@H](CO)C(=O)N[C@@H](CCCCN)C(=O)NCC(=O)N[C@@H](CCCNC(=N)N)C(=O)N2` [Lys13Ala] (H-RCKTCSKGRCRPAPNCG-OH; disulfide 2-16, 5-10): the IC50 was 4.55 µM at rKV1.1 (setting [1]) and 1.08 µM at rKV1.6 (setting [2]).

For the compound `CC[N+](CC)(CC)CC` [TEA, tetraethylammonium, reference compound], the “KV1.1 current reduced to” value on rKV1.1 (200 μM TEA alone in bath solution) is 52.20 ± 1.74%. Also, the IC50 at rKV1.1 (external TEA in bath solution, concentration stated as IC50, read-out: TEA IC50 on KV1.1) came out at 200 µM; at rKV1.6 (external TEA in bath solution, concentration stated as IC50, read-out: TEA IC50 on KV1.6), 920 µM. Also, the “KV1.6 K+ currents reduced to” value at rKV1.6 (920 μM TEA alone in bath solution) stood at 51.50 ± 0.65%.
